The values that follow come from publication PMC9000588 (Molecules, 2022).

This test has as its target SARS-CoV-2 spike protein RBD (Severe acute respiratory syndrome coronavirus 2, UniProt P0DTC2). Nature of the test: biochemical. Type of test: binding. The settings on record: for kon: read-out: Ka; for Binding (Yes/No): pH 7.4.

Numbered stars: 1 amine (or outer) side, 2 acyl side, 3 side chain; on linkers, the order of the positions; unused ones are H or OH. Bridge positions count the residues as written; N and C are the ends. Ends that are not written are not given here. Peptide text beside a SMILES is read from it. Suc = O=C(CCC(=O)[*:2])[*:1]

In the case of `CSCC[C@@H]1NC(=O)[C@H](CC(C)C)NC(=O)[C@H](CCCCN)NC(=O)[C@H](CCC(=O)O)NC(=O)[C@H](Cc2ccccc2)NC(=O)[C@H](CC(C)C)NC(=O)[C@H](CC(=O)O)NC(=O)[C@H](CCC(=O)O)NC(=O)[C@H](C)NC(=O)[C@H](CCC(=O)O)NC(=O)[C@H](Cc2c[nH]cn2)NC(=O)[C@H](CC(N)=O)NC(=O)[C@H](Cc2ccccc2)NC(=O)[C@H](CCCCN)NC1=O` [Peptide 3] (cyclo(AEDLFEKLMKFNHE)), the kon is 15.1 ± 3.8 M⁻¹ s⁻¹. On the same count and under the same terms, to `CSCC[C@H](NC(=O)[C@H](CC(C)C)NC(=O)[C@H](CCCCN)NC(=O)[C@H](CCC(=O)O)NC(=O)[C@H](Cc1ccccc1)NC(=O)[C@H](CC(C)C)NC(=O)[C@H](CC(=O)O)NC(=O)[C@H](CCC(=O)O)NC(=O)[C@H](C)NC(=O)[C@H](CCC(=O)O)NC(=O)[C@H](Cc1c[nH]cn1)NC(=O)[C@H](CC(N)=O)NC(=O)[C@H](Cc1ccccc1)NC(=O)[C@H](CCCCN)NC(=O)CCC(=O)O)C(N)=O` [Peptide 4] (Suc-KFNHEAEDLFEKLM-NH2) belongs 13.9 ± 3.6 M⁻¹ s⁻¹; to `CSCC[C@@H]1NC(=O)[C@H](CC(C)C)NC(=O)[C@H](CCCCN)NC(=O)[C@H](CCC(=O)O)NC(=O)[C@H](Cc2ccccc2)NC(=O)[C@H](CC(C)C)NC(=O)[C@H](CC(=O)O)NC(=O)[C@H](CCC(=O)O)NC(=O)[C@H](C)NC(=O)[C@H](CCC(=O)O)NC(=O)[C@H](Cc2c[nH]cn2)NC(=O)[C@H](CC(N)=O)NC(=O)[C@H](Cc2ccccc2)NC(=O)[C@H](CCCCN)NC(=O)[C@@H](N)CSSC[C@@H](C(N)=O)NC1=O` [Peptide 6] (H-CKFNHEAEDLFEKLMC-NH2; disulfide 1-16), 6.84 ± 2.46 M⁻¹ s⁻¹. Consider `CSCC[C@H](NC(=O)[C@H](CC(=O)O)NC(=O)[C@H](CCC(=O)O)NC(=O)[C@H](Cc1ccccc1)NC(=O)[C@H](CC(C)C)NC(=O)[C@H](CCC(=O)O)NC(=O)[C@H](CCC(=O)O)NC(=O)[C@H](Cc1ccccc1)NC(=O)[C@H](CC(C)C)NC(=O)[C@H](CCCCN)NC(=O)[C@H](CCC(=O)O)NC(=O)[C@H](Cc1ccccc1)NC(=O)[C@H](CC(C)C)NC(=O)[C@H](CC(=O)O)NC(=O)[C@H](CCC(=O)O)NC(=O)[C@H](C)NC(=O)[C@H](CCC(=O)O)NC(=O)[C@H](Cc1c[nH]cn1)NC(=O)[C@H](CC(N)=O)NC(=O)[C@H](Cc1ccccc1)NC(=O)[C@H](CCCCN)NC(=O)CCC(=O)O)C(N)=O` [Peptide 7] (Suc-KFNHEAEDLFEKLFEELFEDM-NH2), for which the Kd result is recorded as “(2.09 ± 0.39) × 10^−2 M^−1”, the “Binding (Yes/No)” value was “Yes” and the kon stood at 4.29 ± 0.52 M⁻¹ s⁻¹. For `CC(C)C[C@H](NC(=O)CCC(=O)O)C(=O)N[C@@H](CC(C)C)C(=O)N[C@@H](CCC(=O)O)C(=O)N[C@@H](CCCCN)C(=O)N[C@@H](CC(C)C)C(=O)N[C@@H](CC(C)C)C(=O)N[C@@H](CCC(=O)O)C(=O)N[C@@H](Cc1c[nH]c2ccccc12)C(=O)N[C@@H](CC(C)C)C(=O)N[C@@H](CCC(=O)O)C(N)=O` [Peptide 9] (Suc-LLEKLLEWLE-NH2) the same measures were “(1.39 ± 0.16) × 10^−2 M^−1”, “Yes” and 5.83 ± 2.92 M⁻¹ s⁻¹.

In the case of Ac-KFNHEAEDLFEKLM [Peptide 5], the kon amounted to 0.64 ± 0.09 M⁻¹ s⁻¹. On to GLFKEALEELWEA-NH2 [Peptide 8], for which the kon was 5.39 ± 1.31 M⁻¹ s⁻¹.

KFNDEAEDLFKLFEELFEDM-NH2 [Peptide 10]: the kon worked out at 6.81 ± 2.41 M⁻¹ s⁻¹. Take KFNHEAEDLFEKLM [Peptide 1]: the kon came to 4.62 ± 0.45 M⁻¹ s⁻¹.

In the case of KFNHEAEDLFEKLM-NH2 [Peptide 2], the kon was 1.15 ± 0.08 M⁻¹ s⁻¹.

Take MIEEQAKFLDKFNHEAEDLFK-NH2 [Peptide 11]: the “binding to the spike protein RBD at higher concentrations” value was “bound”.
